The results in this text go back to ChEMBL document CHEMBL5321287, “Discovery, Synthesis, and Evaluation of Novel Dual Inhibitors of a Vascular Endothelial Growth Factor Receptor and Poly(ADP-Ribose) Polymerase for BRCA Wild-Type Breast Cancer Therapy” (J Med Chem, 2023).

Activity calls are given as the source filed them. The calls are words filed in the database; no cut-off is given here.

The IC50 is the concentration that inhibits the measured activity by half.

In assay [1] the target is Vascular endothelial growth factor receptor 2 (Homo sapiens, UniProt P35968). Put plainly: Inhibition of VEGFR2 (unknown origin) by Z'-Lyte kinase assay.
Assay [2] relates to MCF7. Put plainly: Antiproliferative activity against human MCF7 cells assessed as cell growth inhibition.
Assay [3] has as its target T1, Poly [ADP-ribose] polymerase 1 (Homo sapiens, UniProt P09874). Put plainly: Inhibition of PARP1 (unknown origin).
Assay [4] concerns MDA-MB-231. Put plainly: Antiproliferative activity against human MDA-MB-231 cells assessed as cell growth inhibition.
Assay [5] has as its system MDA-MB-436. Put plainly: cells. As to conditions: Homo sapiens.
Assay [6] has as its system MDA-MB-436. Put plainly: Antiproliferative activity against human MDA-MB-436 cells assessed as cell growth inhibition.
In assay [7] the test system is MDA-MB-231. Put plainly: cells. As to conditions: Homo sapiens.
The subject of assay [8] is HCC1937. Put plainly: cells. As to conditions: Homo sapiens.
Assay [9] deals with MCF7. Put plainly: cells. The settings on record: Homo sapiens.
For assay [10], the target named is T1, Poly [ADP-ribose] polymerase 1. As to conditions: MDA-MB-231, dose 50.0 mg/kg, route po, time 14.0 day.
Another assay concerns HUVEC. Put plainly: cells. The settings on record: Homo sapiens, 48 h.
The test system of assay [11] is HCC1937. Put plainly: Antiproliferative activity against human HCC1937 cells assessed as cell growth inhibition.

Chain of Vascular endothelial growth factor receptor 2 (P35968 whole entry): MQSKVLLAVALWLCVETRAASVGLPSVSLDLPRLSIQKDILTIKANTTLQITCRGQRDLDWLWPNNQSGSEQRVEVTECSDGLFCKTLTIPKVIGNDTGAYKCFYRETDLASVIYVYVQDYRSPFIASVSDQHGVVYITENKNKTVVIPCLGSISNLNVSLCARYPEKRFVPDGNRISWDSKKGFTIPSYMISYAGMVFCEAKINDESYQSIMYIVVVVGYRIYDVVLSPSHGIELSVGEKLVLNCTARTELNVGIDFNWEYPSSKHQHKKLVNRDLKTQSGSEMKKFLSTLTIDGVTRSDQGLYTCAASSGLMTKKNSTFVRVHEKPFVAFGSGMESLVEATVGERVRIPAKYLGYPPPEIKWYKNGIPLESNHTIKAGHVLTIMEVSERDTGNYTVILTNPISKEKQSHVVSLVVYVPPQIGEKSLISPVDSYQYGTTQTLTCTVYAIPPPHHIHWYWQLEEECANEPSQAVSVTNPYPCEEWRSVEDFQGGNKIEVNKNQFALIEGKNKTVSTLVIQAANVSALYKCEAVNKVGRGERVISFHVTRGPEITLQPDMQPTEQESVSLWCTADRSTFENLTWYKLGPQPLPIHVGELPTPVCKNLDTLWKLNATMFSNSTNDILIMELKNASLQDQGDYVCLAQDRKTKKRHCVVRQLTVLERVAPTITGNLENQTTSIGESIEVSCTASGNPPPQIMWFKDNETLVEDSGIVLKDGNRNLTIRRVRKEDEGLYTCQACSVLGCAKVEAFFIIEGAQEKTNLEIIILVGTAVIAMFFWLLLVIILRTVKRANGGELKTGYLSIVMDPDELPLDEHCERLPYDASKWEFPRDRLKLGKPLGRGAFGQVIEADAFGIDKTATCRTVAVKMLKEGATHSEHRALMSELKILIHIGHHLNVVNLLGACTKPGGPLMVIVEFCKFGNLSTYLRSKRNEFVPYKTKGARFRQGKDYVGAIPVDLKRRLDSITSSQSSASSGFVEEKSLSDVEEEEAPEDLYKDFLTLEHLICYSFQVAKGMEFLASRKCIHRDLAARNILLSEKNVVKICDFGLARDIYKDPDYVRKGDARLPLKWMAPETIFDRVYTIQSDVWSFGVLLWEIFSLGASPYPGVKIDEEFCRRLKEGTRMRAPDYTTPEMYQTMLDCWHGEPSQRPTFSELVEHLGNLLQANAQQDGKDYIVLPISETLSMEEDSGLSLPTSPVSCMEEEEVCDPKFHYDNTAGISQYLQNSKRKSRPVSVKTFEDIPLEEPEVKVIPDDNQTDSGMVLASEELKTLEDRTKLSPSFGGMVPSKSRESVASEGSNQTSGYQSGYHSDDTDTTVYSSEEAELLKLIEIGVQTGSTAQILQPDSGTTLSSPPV
T1 sequence (P09874 whole entry): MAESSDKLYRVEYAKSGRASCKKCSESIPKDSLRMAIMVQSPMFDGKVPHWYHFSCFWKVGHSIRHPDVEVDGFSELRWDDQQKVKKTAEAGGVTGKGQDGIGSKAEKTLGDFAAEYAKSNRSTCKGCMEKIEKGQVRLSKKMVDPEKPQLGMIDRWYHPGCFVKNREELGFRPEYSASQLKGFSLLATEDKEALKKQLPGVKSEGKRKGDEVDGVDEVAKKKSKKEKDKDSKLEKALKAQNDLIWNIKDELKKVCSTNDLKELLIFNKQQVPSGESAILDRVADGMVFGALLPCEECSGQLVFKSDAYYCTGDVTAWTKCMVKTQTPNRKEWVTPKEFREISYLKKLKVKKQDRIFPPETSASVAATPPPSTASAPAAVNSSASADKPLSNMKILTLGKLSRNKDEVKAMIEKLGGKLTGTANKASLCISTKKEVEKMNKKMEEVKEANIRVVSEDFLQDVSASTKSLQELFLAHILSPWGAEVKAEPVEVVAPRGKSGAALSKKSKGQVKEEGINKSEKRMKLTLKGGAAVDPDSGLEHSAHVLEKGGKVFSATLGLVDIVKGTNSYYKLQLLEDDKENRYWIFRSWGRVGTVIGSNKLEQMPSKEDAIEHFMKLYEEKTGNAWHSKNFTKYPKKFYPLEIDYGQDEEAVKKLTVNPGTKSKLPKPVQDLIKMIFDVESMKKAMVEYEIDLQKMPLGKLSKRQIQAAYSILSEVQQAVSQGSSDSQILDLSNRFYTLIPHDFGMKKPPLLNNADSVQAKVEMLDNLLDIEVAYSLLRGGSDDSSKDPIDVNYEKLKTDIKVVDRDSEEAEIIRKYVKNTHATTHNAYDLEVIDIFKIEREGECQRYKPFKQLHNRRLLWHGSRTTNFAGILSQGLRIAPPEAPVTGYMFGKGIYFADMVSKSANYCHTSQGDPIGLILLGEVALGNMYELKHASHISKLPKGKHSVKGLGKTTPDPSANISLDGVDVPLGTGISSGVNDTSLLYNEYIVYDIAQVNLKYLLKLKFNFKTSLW

`CN(c1ccc(Cl)cc1)c1ccnc(Nc2ccc(-c3nc4cc(F)c(F)cc4[nH]3)cc2)n1`: the half-maximal inhibitory concentration (IC50) in [1] was 427 nM; in the assay with MCF7 [2], greater than 10000 nM; in assay [3], 661 nM; in the assay with MDA-MB-231 [4] it was greater than 10000 nM.
As for `COc1ccc(-c2nc3c(C(N)=O)cccc3[nH]2)cc1Nc1nccc(N(C)c2ccc3c(C)n(C)nc3c2)n1`, the IC50 in assay [1] was 266 nM; with MCF7 [2], greater than 10000 nM; in assay [3], 39.4 nM; with MDA-MB-231 [4] it was greater than 10000 nM.
Consider `Cc1c2ccc(N(C)c3ccnc(Nc4ccc(C(=O)Nc5nc6c(C(N)=O)cccc6[nH]5)c(Cl)c4)n3)cc2nn1C`, for which, in [3], inhibition was half-maximal at 166 nM (IC50).
`CN(c1ccc(S(C)(=O)=O)cc1)c1ccnc(Nc2ccc(-c3nc4c(C(N)=O)cccc4[nH]3)cc2)n1` had a 50% inhibitory concentration (IC50) in assay [1] greater than 10000 nM.
`NC(=O)c1cccc2[nH]c(-c3ccc(Nc4nccc(N5CCN(c6ccc(C(F)(F)F)cn6)CC5)n4)cc3)nc12`: in assay [3], it took 98.2 nM to reach half-maximal inhibition (IC50).
In assay [1], `CN(c1ccnc(Nc2ccc(-c3nc4c(C(N)=O)cccc4[nH]3)cc2)n1)c1cc(C(C)(C)C)n(C)n1` displayed a half-maximal inhibitory concentration (IC50) greater than 10000 nM.
`Cc1ccc(Nc2nccc(N(C)c3ccc4c(C)n(C)nc4c3)n2)cc1-c1nc2cc(F)c(F)cc2[nH]1` gave an IC50 in assay [3] of 682 nM.
In the case of `Cc1c2ccc(N(C)c3ccnc(Nc4ccc(-c5nc6c(C(N)=O)cccc6[nH]5)cc4F)n3)cc2nn1C`, the IC50 in assay [1] was 254 nM; with MCF7 [2], greater than 10000 nM; in [3], 118 nM; in the assay with MDA-MB-231 [4], 9340 nM.
In assay [1], `CN(c1ccc2ncccc2c1)c1ccnc(Nc2ccc(-c3nc4c(C(N)=O)cccc4[nH]3)cc2)n1` yielded an IC50 of 659 nM.
The same measure, in the same setting: in the case of `Cc1c2ccc(N(C)c3cc(C(F)(F)F)nc(Nc4ccc(C(=O)Nc5nc6c(C(N)=O)cccc6[nH]5)cc4)n3)cc2nn1C` it was greater than 10000 nM; in that of `Cc1c2ccc(N(C)c3nc(Nc4ccc(-c5nc6c(C(N)=O)cccc6[nH]5)cc4)nc4ccsc34)cc2nn1C`, greater than 10000 nM.
As to `Cc1c2ccc(N(C)c3ccnc(Nc4cccc(-c5nc6c(C(N)=O)cccc6[nH]5)c4)n3)cc2nn1C`, half-maximal inhibition in assay [3] (IC50) was put at 82.7 nM.
Same read-out and setting: in the case of `Cc1c2ccc(N(C)c3ccnc(Nc4ccc(C(=O)Nc5nc6c(C(N)=O)cccc6[nH]5)c(C(F)(F)F)c4)n3)cc2nn1C` it was 345 nM.
Turning to `Cc1c2ccc(N(C)c3ccnc(Nc4ccc(-c5nc6c(C(N)=O)cccc6[nH]5)c(C(F)(F)F)c4)n3)cc2nn1C`, the 50% inhibitory concentration (IC50) in assay [1] was 267 nM; in the assay on MCF7 [2], greater than 10000 nM; in [3], 164 nM.
Turning to `Cc1cc(N(C)c2ccc3c(C)n(C)nc3c2)nc(Nc2ccc(-c3nc4c(C(N)=O)cccc4[nH]3)cc2)n1`, the IC50 in [1] is greater than 10000 nM; with MCF7 [2], greater than 10000 nM; in assay [3], 85.2 nM; in the assay with MDA-MB-231 [4], greater than 10000 nM.
For `Cc1c2ccc(N(C)c3ccnc(Nc4cccc(-c5nc6cc(F)c(F)cc6[nH]5)c4)n3)cc2nn1C`, the IC50 in [1] worked out at 190 nM; in the assay on MCF7 [2] it was 7200 nM; in assay [3] it was 647 nM; in the assay on MDA-MB-231 [4], 2300 nM.
For `O=C(c1cc(Cc2n[nH]c(=O)c3ccccc23)ccc1F)N1CCN(C(=O)C2CC2)CC1` [OLAPARIB], the IC50 is greater than 10000 nM with MDA-MB-436 [5]; 9000 nM in the assay on MDA-MB-436 [6]; greater than 10000 nM with MCF7 [2]; greater than 10000 nM with MDA-MB-231 [7]; greater than 10000 nM with MDA-MB-231 [4]; greater than 10000 nM in the assay with HCC1937 [8]. Also, the IC50 was greater than 10000 nM in the assay with MCF7 [9], 4600 nM in the assay with HUVEC and 6510 nM in the assay on HCC1937 [11]. Also, the inhibition entry in [10] is “Active”.
Turning to `CC(C)c1ccc(N(C)c2ccnc(Nc3ccc(-c4nc5c(C(N)=O)cccc5[nH]4)cc3)n2)cc1`, the midpoint of inhibition in assay [3], the IC50, lay at 89.7 nM.
In assay [1], `CN1CCN(C2CCN(c3ccnc(Nc4ccc(-c5nc6c(C(N)=O)cccc6[nH]5)cc4)n3)CC2)CC1` showed a half-inhibitory concentration (IC50) greater than 10000 nM.
`CN(c1ccc(F)cc1)c1ccnc(Nc2ccc(-c3nc4c(C(N)=O)cccc4[nH]3)cc2)n1` yielded an IC50 in [3] of 130 nM.
Regarding `CS(=O)(=O)N1CCN(c2ccnc(Nc3ccc(-c4nc5c(C(N)=O)cccc5[nH]4)cc3)n2)CC1`, the IC50 in assay [1] was greater than 10000 nM.
In assay [3], `Cc1c2ccc(N(C)c3ccnc(Nc4ccc(-c5nc6cc(F)c(F)cc6[nH]5)c(Cl)c4)n3)cc2nn1C` returned an IC50 of 759 nM.
For `CC(C)c1ccc(N(C)c2ccnc(Nc3ccc(-c4nc5cc(F)c(F)cc5[nH]4)cc3)n2)cc1`, the 50% inhibitory concentration (IC50) in [1] was found to be 501 nM.
Same read-out and setting: the same measure for `Cc1ccc(Nc2nccc(N(C)c3ccc4c(C)n(C)nc4c3)n2)cc1-c1nc2ccccc2[nH]1`: 171 nM.
With `Cc1cc(Nc2nccc(N(C)c3ccc4c(C)n(C)nc4c3)n2)cnc1-c1nc2c(C(N)=O)cccc2[nH]1`, the IC50 in assay [1] was 235 nM; in the assay with MCF7 [2], greater than 10000 nM; in assay [3] it was 150 nM; in the assay with MDA-MB-231 [4], 8910 nM.
In assay [3], `Cc1c2ccc(N(C)c3ccnc(Nc4ccc(-c5nc6c(C(N)=O)cccc6[nH]5)c(Cl)c4)n3)cc2nn1C` came in with a half-inhibitory concentration (IC50) of 142 nM.
For the compound `Cc1c2ccc(N(C)c3ccnc(Nc4ccc(-c5nc6ccccc6[nH]5)c(Cl)c4)n3)cc2nn1C`, the IC50 in assay [1] is 188 nM; with MCF7 [2] it was greater than 10000 nM; in assay [3], greater than 10000 nM; with MDA-MB-231 [4], greater than 10000 nM.
Take `COc1cc(Nc2nccc(N(C)c3ccc4c(C)n(C)nc4c3)n2)ccc1-c1nc2c(C(N)=O)cccc2[nH]1`: the 50% inhibitory concentration (IC50) in assay [1] is 169 nM.
In assay [3], `CN(c1ccc(Cl)cc1)c1ccnc(Nc2ccc(C(=O)Nc3nc4c(C(N)=O)cccc4[nH]3)cc2)n1` showed a concentration for half-maximal inhibition (IC50) of 137 nM.
As to `COc1cc(N(C)c2ccc3c(C)n(C)nc3c2)nc(Nc2ccc(-c3nc4c(C(N)=O)cccc4[nH]3)cc2)n1`, the IC50 in [1] is greater than 10000 nM; in the assay with MCF7 [2], greater than 10000 nM; in [3], 79.6 nM; in the assay on MDA-MB-231 [4], greater than 10000 nM.
Consider `Cc1cnc(Nc2ccc(-c3nc4c(C(N)=O)cccc4[nH]3)cc2)nc1N(C)c1ccc2c(C)n(C)nc2c1`, for which the IC50 in assay [1] is greater than 10000 nM.
In assay [1], `COc1ccc(-c2nc3cc(F)c(F)cc3[nH]2)cc1Nc1nccc(N(C)c2ccc3c(C)n(C)nc3c2)n1` registered an IC50 of 200 nM.
`Cc1c2ccc(N(C)c3ccnc(Nc4ccc(C(=O)Nc5nc6c(C(N)=O)cccc6[nH]5)cc4)n3)cc2nn1C` yielded an IC50 in assay [1] of 260 nM.
Compound `Cc1c2ccc(N(C)c3ccnc(Nc4ccc(-c5nc6cc(F)c(F)cc6[nH]5)c(C(F)(F)F)c4)n3)cc2nn1C` displayed an IC50 in assay [3] of 673 nM.
In the case of `Cc1c2ccc(N(C)c3ccnc(Nc4ccc(-c5nc6ccccc6[nH]5)c(C(F)(F)F)c4)n3)cc2nn1C`, the 50% inhibitory concentration (IC50) in [1] was 213 nM; in the assay with MCF7 [2], greater than 10000 nM; in assay [3], greater than 10000 nM; in the assay on MDA-MB-231 [4], greater than 10000 nM.
For the compound `COc1cc(Nc2nccc(N(C)c3ccc4c(C)n(C)nc4c3)n2)ccc1-c1nc2cc(F)c(F)cc2[nH]1`, in assay [1], the 50% inhibitory concentration (IC50) turned out to be 165 nM.
As to `NC(=O)c1cccc2[nH]c(-c3ccc(Nc4nccc(N5CCN(C(=O)c6ccccc6)CC5)n4)cc3)nc12`, the IC50 in assay [1] is greater than 10000 nM; in the assay on MCF7 [2] it was greater than 10000 nM; in [3], 128 nM; in the assay with MDA-MB-231 [4], greater than 10000 nM.
As for `Cc1c2ccc(N(C)c3ccnc(Nc4cc(F)c(-c5nc6c(C(N)=O)cccc6[nH]5)c(F)c4)n3)cc2nn1C`, the 50% inhibitory concentration (IC50) in [3] was 342 nM.
For the compound `CN(c1ccc(N2CCOCC2)cc1)c1ccnc(Nc2ccc(-c3nc4c(C(N)=O)cccc4[nH]3)cc2)n1`, the half-maximal inhibitory concentration (IC50) in [1] was greater than 10000 nM; in the assay with MCF7 [2], 8930 nM; in [3], 87 nM; in the assay with MDA-MB-231 [4], 9720 nM.
As to `CN(c1ccc(N2CCOCC2)c(F)c1)c1ccnc(Nc2ccc(C(=O)Nc3nc4ccccc4[nH]3)cc2)n1`, the IC50 in assay [1] is 728 nM; in the assay on MCF7 [2] it was greater than 10000 nM; in assay [3], greater than 10000 nM; in the assay on MDA-MB-231 [4], greater than 10000 nM.
Take `Cc1c2ccc(N(C)c3ccnc(Nc4ccc(-c5nc6c(C(N)=O)cccc6[nH]5)cc4)n3)cc2nn1C`: inhibition in [3] was half-maximal at 95.7 nM (IC50).
The same measure, in the same setting: in the case of `NC(=O)c1cccc2[nH]c(NC(=O)c3ccc(Nc4nccc(N5CCN(C(=O)c6ccccc6)CC5)n4)cc3)nc12` it was 194 nM.
As for `Cc1c2ccc(N(C)c3ccnc(Nc4ccc(-c5ccc(-c6nc7c(C(N)=O)cccc7[nH]6)cc5)cc4)n3)cc2nn1C`, the IC50 in [1] is 308 nM; in the assay on MCF7 [2], greater than 10000 nM; in assay [3] it was 469 nM; in the assay on MDA-MB-231 [4], greater than 10000 nM.
